Source: patent publication US20180045715A1, “STRUCTURE AND FUNCTION OF THE SALICYCLIC ACID BINDING SITES ON HUMAN HMGB1 AND METHODS OF USE THEREOF FOR THE RATIONAL DESIGN OF BOTH SALICYCLIC ACID DERIVATIVES AND OTHER AGENTS THAT ALTER ANIMAL AND PLANT HMGBS ACTIVITIES” (Boyce Thompson Institute for Plant Research, Inc., priority 2015, published 2018)
Positions count from the first letter of the chain named.

Key:
[1] = system: COX; details: cited from earlier work
[2] = de-acetylation by esterases in human plasma (Costello et al., 1984); cited from earlier work
[3] = target: T1, mutant (R24A/K28A) HMGB1^RE (Homo sapiens, UniProt P09429, K28A/R24A); test: Chemotaxis assay with mutant R24A/K28A HMGB1^RE; format: cell-based; details: NIH/3T3 fibroblasts
T1 construct: (i) full length: residues 2-215; made in house
T1 sequence (P09429 2-215 R24A/K28A): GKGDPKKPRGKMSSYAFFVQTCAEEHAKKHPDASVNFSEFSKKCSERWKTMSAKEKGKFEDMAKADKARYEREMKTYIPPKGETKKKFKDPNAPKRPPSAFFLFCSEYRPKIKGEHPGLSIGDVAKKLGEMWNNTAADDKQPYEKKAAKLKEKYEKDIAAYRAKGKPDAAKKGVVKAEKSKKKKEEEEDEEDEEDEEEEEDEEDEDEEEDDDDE
Method: (§1) Cell migration was assayed using Boyden chambers (Venereau et al., 2012). The downside of PVP-free polycarbonate filters (8 μm pores; Millipore) was coated with 50 μg/ml fibronectin (Sigma). Serum-free DMEM (negative control), DMEM containing 0.1 nM fMLP (positive control; Sigma), or DMEM containing 1 nM HMGB1^RE or HMGB1^SS were placed in the lower chamber, together with different concentrations of SA (Sigma). The mouse 3T3 fibroblast cells were cultured in DMEM media supplemented with 10% CS until 90% confluence, washed twice with PBS to eliminate any floating cells, and harvested with trypsin. 50,000 cells in 200 μL were added to the upper chamber, and cells were left to migrate for 3 h at 37° C. Non-migrating cells were removed with a cotton swab, and migrated cells were fixed with ethanol and stained with Giemsa.
(§2) An alternative explanation is that SA, at low concentrations, affects another factor in vivo, which results indirectly in suppression of HMGB1^RE-induced chemotaxis. […] Therefore, these residues were mutated to Ala to form the double mutant Arg24Ala/Lys28Ala (R24A/K28A).

[4] = target: T2, HMGB1^RE (Homo sapiens, UniProt P09429); test: Chemotaxis assay (Boyden chambers): HMGB1^RE-elicited migration of mouse 3T3 fibroblasts; format: cell-based
T2 construct: (i) full length: residues 2-215; 6x His (cleaved yes); made in house; host or cells: Escherichia coli BL21
T2 sequence (P09429 2-215): T1 sequence (P09429 2-215 R24A/K28A) with A23R, A27K
Method: as §1
(§3) HMGB1^RE acts as a chemo-attractant that mediates migration of several cell types, including monocytes, fibroblasts, mesoangioblasts, smooth muscle cells, and colon cancer cells (Venereau et al., 2012). To determine whether SA alters HMGB 1's chemo-attractant activity, a chemotaxis assay was performed with mouse 3T3 fibroblasts.

[5] = system: fMLP-induced migration of NIH/3T3 fibroblast cells; test: Chemotaxis assay: fMLP-induced fibroblast migration (specificity control); format: cell-based, mouse; details: 0.1 nM fMLP
Method: as §1, §3

[6] = target: T3, full-length (FL) R24A/K28A HMGB1 (Homo sapiens, UniProt P09429, K28A/R24A); test: 15N-1H HSQC NMR binding to R24A/K28A HMGB1; details: ~0.1 mM protein; 15 mM SA, 3 mM ac3AESA or 3 mM amorfrutin B1
T3 construct: (i) full length: residues 2-215; made in house
T3 sequence (P09429 2-215 R24A/K28A): T1 sequence (P09429 2-215 R24A/K28A)
Method: […] Samples were analyzed with and without SA or other candidate inhibitors at 25° C. Chemical shift perturbation studies were carried out using either a Bruker Avance 800 MHz Avance NMR system with 4-mm NMR tubes, or using a Bruker Avance 600 MHz NMR spectrometer equipped with a 1.7 mm micro cryoprobe. 1024 or 2048 complex points were acquired for each of 80 to 200 increments in the ^15N dimension with a recycle delay of 1 s. Each spectrum was typically acquired for 2-8 hrs. Chemical shift assignments were determined using a uniformly ^13C,^15N-enriched HMGB1-ΔC construct at 25° C. via traditional triple-resonance NMR experiments (Biamonti et al., 1994; Moseley et al., 2001) recorded on a Bruker 800 MHz NMR spectrometer equipped with a 5 mm cryoprobe. Disulfide oxidation studies were carried out using the ^15N-^1H SOFAST-HMQC NMR experiment (Schanda & Brutscher, 2005; Schanda et al., 2005; Zandarashvili et al., 2013).
as §2

[7] = target: T4, AtHMGB3 (Arabidopsis thaliana, UniProt P93047); test: SPR: AtHMGB3 binding to immobilized 3AESA; set-up: providing a full length Arabidopsis thaliana HMGB1 or HMGB3 (AtHMGB1 or AtHMGB3) protein; 6x His; made in house; host or cells: Escherichia coli BL21
T4 sequence (P93047 1-141): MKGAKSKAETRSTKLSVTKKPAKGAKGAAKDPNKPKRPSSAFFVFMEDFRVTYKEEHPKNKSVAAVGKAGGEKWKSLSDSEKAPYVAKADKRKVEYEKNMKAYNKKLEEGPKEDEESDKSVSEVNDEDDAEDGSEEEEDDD

[8] = target: T5, AtHMGB1 (Arabidopsis thaliana, UniProt O49595); test: SPR: AtHMGB1 binding to immobilized 3AESA
T5 sequence (O49595 1-178): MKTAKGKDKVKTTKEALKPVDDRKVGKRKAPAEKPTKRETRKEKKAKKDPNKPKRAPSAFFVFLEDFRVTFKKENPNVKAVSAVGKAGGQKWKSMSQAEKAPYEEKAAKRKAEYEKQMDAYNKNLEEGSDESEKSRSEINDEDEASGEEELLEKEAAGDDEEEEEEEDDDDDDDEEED
Method: For SPR, 3-AESA was immobilized on a CM5 sensor chip (GE Healthcare) using the amine coupling kit (GE Healthcare). To test SA binding activity, 0.5 μM HMGB1 in HBS-EP buffer (0.01 M HEPES, pH 7.4, 0.15 M NaCl, 3 mM EDTA, 0.005% v/v Surfactant P20; GE Healthcare) without or with varying concentrations of SA was flowed through 3-AESA-immobilized or mock-coupled flow cells. The binding signals were determined by subtracting out the signal from the mock-coupled flow cell.

## CC(=O)Oc1ccccc1C(=O)O [aspirin, acetylsalicylic acid]
[1]; literature (Mitchell et al., 1997; Vane, 1971)
  IC50, inhibition of COX activity in vitro: 6.3 µg/mL
[1]; literature, conversion in parentheses, read-out: IC50, inhibition of COX activity in vitro
  IC50: ~35 µM
[2]
  half-life of conversion to SA: 13 to 19.5 min

## COc1cc(CCc2ccccc2)c(C(=O)O)c(O)c1C/C=C(\C)CCC=C(C)C [amorfrutin B1]
[3]
  inhibition of R24A/K28A HMGB1^RE's chemo-attractant activity: only partially
[4]; NIH/3T3 fibroblasts, 1 nM HMGB1^RE, read-out: IC50, inhibition of chemo-attractant activity of HMGB1^RE
  IC50: ~0.06 µM
[4]; relative to SA
  times more potent than SA at inhibiting the chemo-attractant activity of HMGB1^RE: 50-70 times
[5]
  effect on fibroblast migration induced by fMLP: but not of 0.1 nM fMLP, was blocked
[6]
  binding to R24A/K28A HMGB1 (CSPs in HSQC): do not bind

## NCCc1cccc(C(=O)O)c1O [3AESA, 3-aminoethyl SA]
[7]
  binding of AtHMGB3 to 3AESA immobilized to SPR sensor chip: effectively bound
[8]
  binding of AtHMGB1 to 3AESA immobilized to SPR sensor chip: effectively bound
